≈ marks a conversion by molar mass, not a printed value.
Legend:
[1] = tested on: S. aureus strain Newman (wild-type); assay: MIC measurement, susceptibility of wild-type strain to fluoroquinolones and vancomycin; type: cell-based; conditions: Staphylococcus aureus
Method: (§1) S. aureus cells were serially diluted and an equal number of cells was spotted on a plate containing various concentrations of antibiotics. The S. aureus strain Newman (wild-type) and the mutant strains mgrA- and mgrH1- (knock outs) were tested.

[2] = tested on: S. aureus mgrA mutant (mgrA-) strain; assay: MIC measurement, susceptibility of mgrA mutant strain to fluoroquinolones and vancomycin; type: cell-based; conditions: Staphylococcus aureus
Method: as §1

MgrA [3] = biological target: T1, MgrA (Staphylococcus aureus, UniProt Q99VT5); assay: Alkylation of Cys12 in MgrA, DTNB assay for free thiol content; type: biochemical, S. aureus; design: His6 (N, cleaved yes); made in house; host or cells: E. coli BL21(DE3); conditions: 8 equivalents alkylator, 0.05 mM MgrA in water, pH 7.4, 1 h, r.t.
T1 sequence (Q99VT5 1-147): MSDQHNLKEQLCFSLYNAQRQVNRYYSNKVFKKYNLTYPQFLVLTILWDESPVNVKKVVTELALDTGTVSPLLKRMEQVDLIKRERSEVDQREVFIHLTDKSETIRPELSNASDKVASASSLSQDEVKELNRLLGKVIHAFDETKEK
Method: Alkylation of Cys12 in MgrA in vitro and in vivo. In a study to test potential alkylation of Cys12 in MgrA, the inventors examined several alkylators (1-7, Table 3). Eight equivalents of alkylators were used to react with 0.05 mM MgrA in water for 1 h at pH 7.4 at room temperature. Alkylation of Cys12 was determined by DTNB assay for free thiol content. […] Over 95% of cysteine thiols were alkylated by compound 7 after 1 h of reaction.

S. aureus Newman strain = assay: Antibiotic sensitivity assay of S. aureus under oxidative stress or alkylator treatment; type: cell-based, Staphylococcus aureus
Method: The change of susceptibility levels of S. aureus strains toward ciprofloxacin and vancomycin under oxidative stress. The antibiotic resistance levels were tested in the absence (−H2O2) or presence (+H2O2) of 100 μM H2O2 by a plate sensitivity assay (FIG. 7A) and were also determined in the absence (−PQ) or presence (+PQ) of 25 μM paraquat by a 96-well-plate sensitivity assay (FIG. 7B). […] Empty bars are non-treated cultures. Results are mean ±s.d. from three independent experiments performed in duplicate.
Five strains were used to test oxidation responses in vivo: the wild-type Newman, the mgrA- mutant (knock out), the mgrA- mutant complemented with mgrA cloned in a plasmid pYJ335, the mgrA- mutant complemented with mgrAC12S in pYJ335, and the control mutant strain with pYJ335.
The susceptibility levels of all five strains toward CIP and VCM were also evaluated in the absence and presence of paraquat (PQ), another reagent known to cause oxidative stress in vivo (FIG. 7B).

norA gene = assay: qRT-PCR of norA gene activation; type: cell-based, S. aureus; conditions: Newman strain
Method: Lanes 1 and 2, purified MgrA (2 μM) with a 40 bp oligonucleotide (0.4 pmol) containing the MgrA binding sequence on the sarV promoter region; lanes 3 and 4, MgrA was treated with 100 equivalents of phenyl vinyl sulfone (7) for 30 min (lane 3) or 60 min (lane 4) before mixed with DNA and applied for the shift assay. FIGS. 13A-B: The Cys-alkylator phenyl vinyl sulfone (PVS) has similar effects on MgrA as hydrogen peroxide. (FIG. 13A) Treatment of the Newman strain with PVS turned on resistance of the pathogen towards vancomycin. (FIG. 13B) The norA gene is repressed by MgrA; however, treatment of the Newman strain with either H2O2 or PVS can turn on this gene.
Activation of MgrA by phenyl vinyl sulfone (PVS) inside S. aureus was tested. […] To further confirm the effect of PVS, the inventors monitored activation of the norA gene known to be repressed by MgrA. […] The next challenge is to develop vinyl sulfones that have high affinity and specificity toward MgrA. Of course, a non-covalent modulator that can activate MgrA with high sensitivity and specificity via direct binding is also highly desirable.

SarA = biological target: T2, SarA (Staphylococcus aureus, UniProt P0C1U6); assay: Oxidation of Cys9 in SarA by oxidants; type: biochemical, S. aureus; conditions: 100 equiv oxidant, 30 min, r.t.
T2 construct: made in house
T2 sequence (P0C1U6 1-124): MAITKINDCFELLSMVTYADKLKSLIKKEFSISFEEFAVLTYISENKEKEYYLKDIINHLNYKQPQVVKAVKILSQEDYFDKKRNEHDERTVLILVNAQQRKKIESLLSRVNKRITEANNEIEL
Excerpt: SarA may adopt an oxidation sensing mechanism similar to MgrA. Cys9 in SarA might be oxidized by ROS or other reactive species which could lead to its dissociation from DNA and activation of the sarA regulon. To test this hypothesis, they cloned, expressed, and purified SarA.

MgrA [4] = biological target: T1, MgrA; conditions: 4 equiv oxidant, 10 min, r.t.
MgrH1 = biological target: T3, MgrH1 (Staphylococcus aureus, UniProt Q2FVN3); conditions: 4 equiv oxidant, 10 min, r.t.
T3 sequence (Q2FVN3 1-148): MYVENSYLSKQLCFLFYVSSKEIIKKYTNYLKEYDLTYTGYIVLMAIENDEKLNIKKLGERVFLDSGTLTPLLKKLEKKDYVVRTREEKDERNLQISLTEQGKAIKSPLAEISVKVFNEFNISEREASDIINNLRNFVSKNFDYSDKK

splB gene = conditions: Newman strain, 0.4 mM, 30 min, qRT-PCR
Excerpt: (FIG. 10C) Monitoring in vivo effects of SarA oxidation by qRT-PCR.
The inventors also monitored activation of a virulence gene splB in S. aureus.

MgrA [5] = biological target: T1, MgrA; assay: Binding assays of MgrA with antibiotics; design: His6 (N, cleaved yes); made in house; host or cells: E. coli BL21(DE3); species or system S. aureus
Excerpt: The regulation mechanism of MgrA. […] The inventors were very intrigued by what they had learned about MgrA: • i) MgrA is a DNA binding protein based on its structure and gel shift experiments. • ii) MgrA regulates S. aureus responses to fluoroquinolones (CIP and NOR, FIG. 1), vancomycin, and oxacillin (data not shown). […] Therefore, MgrA must sense some other host or environmental signals. The mechanistic issue for MgrA frustrated the inventors after they obtained the first crystal structure of this protein. Numerous binding assays were peformed to test a variety of hypotheses. A breakthrough came from a careful inspection of the MgrA structure and its sequence, when it was noticed that there is only one Cys residue present in the entire MgrA sequence, at position 12. This Cys residue, located in the N-terminal α1, is precisely in the dimerization domain (FIG. 4A) and seems to play an important role in orienting the MgrA dimer conformation. Each monomer presents its Cys12 to be recognized through hydrogen bonding to Ser113 and Tyr38 from the other monomer (FIG. 4B).

O=C(O)c1cn(C2CC2)c2cc(N3CCNCC3)c(F)cc2c1=O [CIP, ciprofloxacin]
MIC [1]: 0.35 mg/L (≈ 1.06 µM)
MIC [2]: 0.7 mg/L (≈ 2.11 µM)

CCOC(=O)CI [Compound 2]
Alkylation percentage (Cys12 of MgrA) (MgrA [3]): >95%

O=C(CI)c1ccccc1 [Compound 3]
Alkylation percentage (Cys12 of MgrA) (MgrA [3]): >95%

O=C1C=CC(=O)N1 [Compound 4]
Alkylation percentage (Cys12 of MgrA) (MgrA [3]): >95%

c1ccc(OCC2CO2)cc1 (centres unmarked) [Compound 5]
Alkylation percentage (Cys12 of MgrA) (MgrA [3]): 48%

c1ccc(CC2CO2)cc1 (centres unmarked) [Compound 6]
Alkylation percentage (Cys12 of MgrA) (MgrA [3]): 59%

C=CS(=O)(=O)c1ccccc1 [Compound 7, phenyl vinyl sulfone]
Change of resistance to vancomycin (S. aureus Newman strain; 25 μM PVS, Newman strain): enhanced resistance to vancomycin
Activation of norA gene (norA gene): activated norA as efficient as H2O2

OO [Compound H2O2, hydrogen peroxide]
Oxidation of SarA (Cys9) (SarA): 15% oxidation at r.t.
Change of resistance toward CIP and VCM (S. aureus Newman strain; 100 μM H2O2, Newman strain, plate sensitivity assay): increased resistance
Oxidation of MgrA (Cys12) (MgrA [4]): 4 equiv, 10 min, 65%
Oxidation of MgrH1 (Cys13) (MgrH1): 4 equiv, 10 min, 71%
Activation of splB gene (splB gene): activated

CCn1cc(C(=O)O)c(=O)c2cc(F)c(N3CCNCC3)cc21 [NOR, norfloxacin]
MIC [1]: 0.7 mg/L (≈ 2.19 µM)
MIC [2]: 1.4 mg/L (≈ 4.38 µM)

C[n+]1ccc(-c2cc[n+](C)cc2)cc1 [PQ, paraquat]
Change of resistance toward CIP and VCM (S. aureus Newman strain; 25 μM paraquat, Newman strain, 96-well-plate sensitivity assay): increased antibiotic resistance

CN[C@H](CC(C)C)C(=O)N[C@H]1C(=O)N[C@@H](CC(N)=O)C(=O)N[C@H]2C(=O)N[C@H]3C(=O)N[C@H](C(=O)N[C@H](C(=O)O)c4cc(O)cc(O)c4-c4cc3ccc4O)[C@H](O)c3ccc(c(Cl)c3)Oc3cc2cc(c3O[C@@H]2O[C@H](CO)[C@@H](O)[C@H](O)[C@H]2O[C@H]2C[C@](C)(N)[C@H](O)[C@H](C)O2)Oc2ccc(cc2Cl)[C@H]1O [VCM, vancomycin]
MIC [1]: 1.2 mg/L (≈ 0.828 µM)
MIC [2]: 2.4 mg/L (≈ 1.66 µM)
Binding to MgrA (MgrA [5]): does not bind
